Laboratory results from ChEMBL document CHEMBL3091407, “Synthesis of Novel 3,5-Disubstituted-2-oxindole Derivatives As Antitumor Agents against Human Nonsmall Cell Lung Cancer” (ACS Med Chem Lett, 2013).
The source made the active and inactive calls. The rule behind the calls is not given here.

Tests used:
MDA-MB-231 [1] = experiment: Selectivity for human HCC827 cells over human MDA-MB-231 cells; assay type: functional
A549 [2] = experiment: Inhibition of Akt phosphorylation at Thr308 site in human A549 cells at 10 uM after 3 hrs followed by 10 mins incubation in 10% FBS by Western blotting analysis; assay type: cell-based
MDA-MB-231 [3] = experiment: Cytotoxicity against human MDA-MB-231 cells at 1 to 10 uM after 72 hrs by haemocytometry; assay type: functional, cell-based
A549 [4] = experiment: Inhibition of Akt phosphorylation in human A549 cells assessed as inhibition of FoxO3a phosphorylation at Thr32 at 10 uM after 3 hrs followed by 10 mins incubation in 10% FBS by Western blotting analysis; assay type: cell-based
A549 [5] = experiment: Inhibition of Akt phosphorylation in human A549 cells assessed as inhibition of FoxO1 phosphorylation at Thr24 at 10 uM after 3 hrs followed by 10 mins incubation in 10% FBS by Western blotting analysis; assay type: cell-based
[6] = target: Receptor tyrosine-protein kinase erbB-2 (Homo sapiens) (UniProt P04626); experiment: Inhibition of Her2 phosphorylation at Tyr1221/1222 in human A549 cells at 10 uM after 3 hrs followed by 10 mins incubation in 10% FBS by Western blotting analysis; assay type: cell-based
Receptor tyrosine-protein kinase erbB-2 (Homo sapiens), sequence (P04626 whole entry): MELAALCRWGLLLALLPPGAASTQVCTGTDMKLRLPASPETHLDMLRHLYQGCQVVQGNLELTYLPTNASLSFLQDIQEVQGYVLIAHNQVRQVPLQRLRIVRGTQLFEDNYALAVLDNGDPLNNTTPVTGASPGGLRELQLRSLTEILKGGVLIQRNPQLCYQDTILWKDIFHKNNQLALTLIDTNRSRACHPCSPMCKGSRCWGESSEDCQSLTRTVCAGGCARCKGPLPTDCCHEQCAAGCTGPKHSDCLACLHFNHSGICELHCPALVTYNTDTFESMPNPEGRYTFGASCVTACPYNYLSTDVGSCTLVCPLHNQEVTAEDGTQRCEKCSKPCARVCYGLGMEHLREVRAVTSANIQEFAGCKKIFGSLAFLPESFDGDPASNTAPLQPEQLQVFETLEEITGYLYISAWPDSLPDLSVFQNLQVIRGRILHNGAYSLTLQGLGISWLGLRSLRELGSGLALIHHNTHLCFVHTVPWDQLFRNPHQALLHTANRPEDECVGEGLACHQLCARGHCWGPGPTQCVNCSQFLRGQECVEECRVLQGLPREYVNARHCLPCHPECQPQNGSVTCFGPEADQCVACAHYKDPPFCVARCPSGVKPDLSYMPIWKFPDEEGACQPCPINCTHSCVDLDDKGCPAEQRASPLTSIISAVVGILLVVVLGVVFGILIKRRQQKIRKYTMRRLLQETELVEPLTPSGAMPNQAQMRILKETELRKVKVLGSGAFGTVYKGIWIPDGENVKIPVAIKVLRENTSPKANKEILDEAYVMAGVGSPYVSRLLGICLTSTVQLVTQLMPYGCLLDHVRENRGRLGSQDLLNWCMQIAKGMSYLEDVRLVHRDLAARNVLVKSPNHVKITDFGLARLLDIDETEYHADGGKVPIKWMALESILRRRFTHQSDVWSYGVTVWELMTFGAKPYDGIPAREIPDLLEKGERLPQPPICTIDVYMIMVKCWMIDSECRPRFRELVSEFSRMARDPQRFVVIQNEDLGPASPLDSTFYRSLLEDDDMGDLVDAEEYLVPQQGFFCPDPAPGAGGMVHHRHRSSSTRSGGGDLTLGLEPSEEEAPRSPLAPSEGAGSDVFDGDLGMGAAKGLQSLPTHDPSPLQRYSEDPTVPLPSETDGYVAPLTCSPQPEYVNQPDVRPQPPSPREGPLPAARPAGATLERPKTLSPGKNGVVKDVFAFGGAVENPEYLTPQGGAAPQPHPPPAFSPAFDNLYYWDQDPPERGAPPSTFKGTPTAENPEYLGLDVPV

[7] = target: Epidermal growth factor receptor (Homo sapiens) (UniProt P00533); experiment: Inhibition of EGFR phosphorylation at […] in human A549 cells at 10 uM after 3 hrs followed by 10 mins incubation in 10% FBS by Western blotting analysis; assay type: cell-based
Epidermal growth factor receptor (Homo sapiens), sequence (P00533 whole entry): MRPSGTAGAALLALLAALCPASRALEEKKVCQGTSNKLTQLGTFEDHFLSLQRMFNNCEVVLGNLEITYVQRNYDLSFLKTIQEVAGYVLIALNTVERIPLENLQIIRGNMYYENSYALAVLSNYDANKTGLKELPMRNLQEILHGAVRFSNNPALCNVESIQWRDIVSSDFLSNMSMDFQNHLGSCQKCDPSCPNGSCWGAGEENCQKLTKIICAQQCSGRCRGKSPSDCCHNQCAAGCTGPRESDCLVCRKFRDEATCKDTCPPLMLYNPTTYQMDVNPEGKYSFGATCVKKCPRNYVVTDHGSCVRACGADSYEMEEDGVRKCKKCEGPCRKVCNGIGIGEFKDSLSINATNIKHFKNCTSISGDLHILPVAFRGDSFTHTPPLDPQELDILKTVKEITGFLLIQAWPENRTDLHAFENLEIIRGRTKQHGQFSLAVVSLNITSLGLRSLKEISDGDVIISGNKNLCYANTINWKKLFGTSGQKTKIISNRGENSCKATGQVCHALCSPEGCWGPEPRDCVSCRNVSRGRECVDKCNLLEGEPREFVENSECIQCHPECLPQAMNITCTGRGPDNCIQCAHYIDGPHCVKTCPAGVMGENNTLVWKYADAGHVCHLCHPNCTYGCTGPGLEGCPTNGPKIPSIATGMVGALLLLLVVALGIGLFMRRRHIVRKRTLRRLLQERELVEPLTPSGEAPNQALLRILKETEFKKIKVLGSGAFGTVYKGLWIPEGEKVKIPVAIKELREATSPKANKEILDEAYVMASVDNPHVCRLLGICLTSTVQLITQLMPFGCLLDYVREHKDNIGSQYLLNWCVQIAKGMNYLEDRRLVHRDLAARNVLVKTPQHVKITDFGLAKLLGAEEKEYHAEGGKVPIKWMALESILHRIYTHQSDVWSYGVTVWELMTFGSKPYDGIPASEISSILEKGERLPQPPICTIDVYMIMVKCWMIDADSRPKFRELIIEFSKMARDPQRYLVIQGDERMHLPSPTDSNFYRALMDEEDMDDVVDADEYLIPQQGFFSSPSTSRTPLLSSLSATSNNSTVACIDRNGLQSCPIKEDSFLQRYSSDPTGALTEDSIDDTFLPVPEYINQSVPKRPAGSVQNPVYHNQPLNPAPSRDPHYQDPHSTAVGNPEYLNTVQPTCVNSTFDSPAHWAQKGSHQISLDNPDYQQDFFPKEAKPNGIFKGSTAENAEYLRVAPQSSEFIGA

A549 [8] = experiment: Inhibition of Akt phosphorylation at Ser473 site in human A549 cells at IC50 after 72 hrs by ELISA; assay type: cell-based
A549 [9] = experiment: Inhibition of Akt phosphorylation at Thr308 site in human A549 cells at IC50 after 72 hrs by ELISA; assay type: cell-based
A549 [10] = experiment: Cell cycle arrest in human A549 cells assessed as decrease in G2 cells at IC50 after 24 hrs followed by compound washout by propidium iodide staining-based FACS analysis; assay type: functional; design: scale not given: the % may be the effect or the level left
A549 [11] = experiment: Cell cycle arrest in human A549 cells assessed as decrease in S cells at IC50 after 24 hrs followed by compound washout by propidium iodide staining-based FACS analysis; assay type: functional; design: scale not given: the % may be the effect or the level left
A549 [12] = experiment: Cell cycle arrest in human A549 cells assessed as decrease in G1 cells at IC50 after 24 hrs followed by compound washout by propidium iodide staining-based FACS analysis; assay type: functional; design: scale not given: the % may be the effect or the level left
A549 [13] = experiment: Induction of apoptosis in human A549 cells assessed as cellular rupture into debris at IC50 by fluorescence microscopy; assay type: functional, cell-based
A549 [14] = experiment: Induction of apoptosis in human A549 cells assessed as nuclear fragmentation at IC50 by fluorescence microscopy; assay type: functional, cell-based
A549 [15] = experiment: Induction of apoptosis in human A549 cells assessed as cell shrinkage at IC50 by fluorescence microscopy; assay type: functional, cell-based
A549 [16] = experiment: Ratio of sunitinib IC50 to compound IC50 for human A549 cells; assay type: functional
A549 [17] = experiment: Cytotoxicity against human A549 cells at 0.01 to 100 uM by haemocytometry; assay type: functional, cell-based; conditions: TDE = time-dependent effect
A549 [18] = experiment: Ratio of perifosine IC50 to compound IC50 for human A549 cells; assay type: functional
A549 [19] = experiment: Cytotoxicity against human A549 cells after 24 to 72 hrs by haemocytometry; assay type: functional, cell-based
A549 [20] = experiment: Induction of apoptosis in human A549 cells assessed as apoptotic index at IC50 by fluorescence microscopy relative to control; assay type: functional
[21] = Cytotoxicity against human HCC827 cells after 24 to 72 hrs by haemocytometry; assay type: functional, cell-based

Structure (SMILES) | inhibition (A549 [8]) [%] | inhibition (A549 [9]) [%] | Activity (A549 [10]) [%] | Activity (A549 [11]) [%] | Activity (A549 [12]) [%] | Activity (A549 [13]) | Activity (A549 [14]) | Activity (A549 [15]) | Ratio IC50 (A549 [16]) | Activity (A549 [17]) | Ratio IC50 (A549 [18]) | Activity (A549 [19]) | IC50 (A549 [19]) [nM] | Activity (A549 [20]) [%] | also measured
COc1cc2ncnc(Nc3ccc(F)c(Cl)c3)c2cc1OCCCN1CCOCC1 [GEFITINIB] |  |  |  |  |  |  |  |  |  |  |  |  |  |  | Selectivity ratio (MDA-MB-231 [1]): 1700
COc1cc2c(cc1OC)CN(CC(=O)Nc1ccc3c(c1)/C(=C\c1nccn1C)C(=O)N3)CC2 | 20 | 20 | -0.48 | 1.33 | -0.85 | Active | Active | Active | 2.5 | tde | 2 | Dose-dependent effect | 2750 |  | inhibition (A549 [2]): Active; Activity (MDA-MB-231 [3]): inactive; inhibition (A549 [4]): Active; inhibition (A549 [5]): Active; inhibition [6]: inactive; inhibition [7]: inactive
CCCCCCCCCCCCCCCCCCOP(=O)([O-])OC1CC[N+](C)(C)CC1 [PERIFOSINE] |  |  | -14.51 | -4.05 | 18.56 |  |  |  |  | tde |  | Dose-dependent effect | 4170 | 32 | 
COc1cc2c(cc1OC)CN(CC(=O)Nc1ccc3c(c1)CC(=O)N3)CC2 | 20 | 20 | -14.25 | -4.99 | 19.24 | Active | Active | Active |  | tde |  | Dose-dependent effect | 16200 | 12 | 
COc1cc2c(cc1OC)CN(CC(=O)Nc1ccc3c(c1)/C(=C\c1ccccn1)C(=O)N3)CC2 | 20 | 20 | 1.69 | -2.75 | 1.06 | Active | Active | Active |  | tde |  | Dose-dependent effect | 20000 |  | 
COc1cc2c(cc1OC)CN(CC(=O)Nc1ccc3c(c1)/C(=C/c1cnc[nH]1)C(=O)N3)CC2 | 20 | 20 | -0.61 | -0.51 | -0.1 | Active | Active | Active | 2.5 | tde | 2 | Dose-dependent effect | 2190 |  | 
COc1cc2c(cc1OC)CN(CC(=O)Nc1ccc3c(c1)/C(=C/c1cccs1)C(=O)N3)CC2 | 20 | 20 | -11.2 | -10.23 | 21.04 | Active | Active | Active | 2.5 | tde | 2 | Dose-dependent effect | 660 | 24 | inhibition (A549 [2]): Active; IC50 [21]: 45 nM; Activity (MDA-MB-231 [3]): inactive; inhibition (A549 [4]): Active; inhibition (A549 [5]): Active; inhibition [6]: inactive; inhibition [7]: inactive
